Assays:
[1] = system: asexual blood stage of Pf; test: Pf asexual blood stage potency (Pf IC50); assay type: cell-based, Plasmodium falciparum; conditions: Plasmodium falciparum
Text: The TAPs series emerged from a high-throughput screen (HTS) of 500,000 compounds from the AstraZeneca corporate library against the asexual blood stage of Pf using a high-content image-based approach. The procedure for synthesis of compounds 1-6, 10, 11 using a scheme similar to Fig. 1 is provided in Supplementary Note 1. The initial hit provided multiple diversification points for a robust lead optimization campaign. […] Compounds with 2-pyridyl modification at the 2-amino position of pyrimidine core improved potency and solubility at the cost of potent activity against hERG and acetylcholine esterase (AChE; compounds 3-6; Table 1). […] The observed hERG and AChE selectivity improvement with 7 could be attributed to the polar nature of the pyrazole group and its role in reducing the pKa of the core pyrimidine ring. […] To assess the potential for cross-resistance, representative TAPs were screened against a panel of clinical isolates and in vitro-generated mutant strains displaying varying mechanisms of resistance to antimalarial agents currently in use and under development, respectively, (Supplementary Tables 1–3).

[2] = biological target: T1, hERG (Homo sapiens, UniProt Q12809); test: electrophysiology-based hERG assay using IonWorks HT (CHO cells); assay type: cell-based; conditions: hERG IC50
T1 construct: expressed in transfected cells; host or cells: CHO cells
T1 sequence (Q12809 whole entry): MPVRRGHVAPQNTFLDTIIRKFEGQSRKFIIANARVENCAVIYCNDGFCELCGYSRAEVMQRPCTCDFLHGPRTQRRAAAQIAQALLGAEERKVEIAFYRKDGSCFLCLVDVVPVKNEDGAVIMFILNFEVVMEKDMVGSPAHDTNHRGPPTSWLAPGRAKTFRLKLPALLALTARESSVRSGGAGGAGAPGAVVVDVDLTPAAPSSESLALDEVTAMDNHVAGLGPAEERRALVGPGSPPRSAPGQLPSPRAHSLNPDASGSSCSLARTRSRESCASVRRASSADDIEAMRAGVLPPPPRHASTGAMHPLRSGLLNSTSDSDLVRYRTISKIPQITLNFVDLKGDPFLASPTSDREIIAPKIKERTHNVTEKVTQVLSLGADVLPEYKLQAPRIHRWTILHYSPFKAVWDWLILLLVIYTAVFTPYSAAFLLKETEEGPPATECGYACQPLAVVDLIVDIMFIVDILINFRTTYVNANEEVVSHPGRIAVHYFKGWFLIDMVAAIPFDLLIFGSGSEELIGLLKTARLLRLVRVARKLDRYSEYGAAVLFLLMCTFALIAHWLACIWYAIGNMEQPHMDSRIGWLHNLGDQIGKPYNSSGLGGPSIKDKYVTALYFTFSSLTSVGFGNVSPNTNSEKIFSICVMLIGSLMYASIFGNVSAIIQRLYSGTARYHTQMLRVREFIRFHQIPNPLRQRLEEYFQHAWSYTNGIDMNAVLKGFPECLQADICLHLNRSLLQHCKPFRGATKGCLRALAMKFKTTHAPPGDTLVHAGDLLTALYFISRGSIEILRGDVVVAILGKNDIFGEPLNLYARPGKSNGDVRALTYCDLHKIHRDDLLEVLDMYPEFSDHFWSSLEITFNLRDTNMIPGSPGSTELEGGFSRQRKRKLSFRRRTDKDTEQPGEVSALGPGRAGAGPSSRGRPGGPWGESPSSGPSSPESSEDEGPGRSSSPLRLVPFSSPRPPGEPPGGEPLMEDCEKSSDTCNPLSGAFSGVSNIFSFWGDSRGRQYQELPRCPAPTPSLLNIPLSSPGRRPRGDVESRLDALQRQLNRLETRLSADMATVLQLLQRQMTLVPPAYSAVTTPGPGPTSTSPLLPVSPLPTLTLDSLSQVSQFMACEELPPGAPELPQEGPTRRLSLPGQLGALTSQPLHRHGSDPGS
Description: hERG IC50 was determined in an electrophysiology-based hERG assay using IonWorks HT (CHO cells) as described earlier.

[3] = biological target: T2, acetylcholine esterase (AChE) (Homo sapiens, UniProt P22303); test: AChE enzyme activity assay (CEREP); assay type: biochemical; conditions: read-out: AChE IC50
T2 construct: purchased CEREP, France (external assay service) 0363
T2 sequence (P22303 32-614): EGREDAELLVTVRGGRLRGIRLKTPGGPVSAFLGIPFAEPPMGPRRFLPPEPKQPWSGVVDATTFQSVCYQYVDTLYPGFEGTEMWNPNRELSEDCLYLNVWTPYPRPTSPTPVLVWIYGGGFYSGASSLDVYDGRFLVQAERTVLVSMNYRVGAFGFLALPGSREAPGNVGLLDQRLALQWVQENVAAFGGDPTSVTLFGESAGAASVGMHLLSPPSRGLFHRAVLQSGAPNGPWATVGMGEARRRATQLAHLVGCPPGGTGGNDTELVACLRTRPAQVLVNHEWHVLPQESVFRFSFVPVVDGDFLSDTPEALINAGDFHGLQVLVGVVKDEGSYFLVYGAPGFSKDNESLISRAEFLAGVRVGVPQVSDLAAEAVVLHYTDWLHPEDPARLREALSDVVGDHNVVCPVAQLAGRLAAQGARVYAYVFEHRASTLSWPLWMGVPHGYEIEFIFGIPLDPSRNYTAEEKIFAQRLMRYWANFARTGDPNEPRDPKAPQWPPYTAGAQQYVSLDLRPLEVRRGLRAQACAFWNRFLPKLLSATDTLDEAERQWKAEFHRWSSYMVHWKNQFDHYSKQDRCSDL
Description: (§1) An in vitro pharmacological profiling panel was specifically designed for the detection of potential high- risk clinical adverse drug reactions. The panel comprised of 26 diverse targets (6 enzymes, 2 transporters, 9 G-protein-coupled receptors (GPCRs), 5 ion channels along with hERG, M2, alpha1A and AchE) and was conduced externally by CEREP, France […]. […] Detailed methodology for in vitro pharmacological profiling assays provided by CEREP can be found at http://www.cerep.fr, with specific reference to the AChE (cat. no. 0363), Muscarinic M1 receptor (cat. no. 0091) and Adrenergic α1A receptor (cat. no. 2338) assays. For enzyme and kinase assays, the results were expressed as a percent inhibition of control-specific activity obtained in the presence of the test compound. The IC50 values (concentration causing a half-maximal inhibition of control-specific activity) and Hill coefficients (nH) were determined by nonlinear regression analysis of the inhibition/concentration–response curves using Hill equation curve fitting as described earlier.

[4] = biological target: T3, Muscarinic M2 receptor (Homo sapiens, UniProt P08172); test: Muscarinic M2 receptor radioligand binding (CEREP)
T3 construct: purchased CEREP, France (external assay service)
T3 sequence (P08172 1-466): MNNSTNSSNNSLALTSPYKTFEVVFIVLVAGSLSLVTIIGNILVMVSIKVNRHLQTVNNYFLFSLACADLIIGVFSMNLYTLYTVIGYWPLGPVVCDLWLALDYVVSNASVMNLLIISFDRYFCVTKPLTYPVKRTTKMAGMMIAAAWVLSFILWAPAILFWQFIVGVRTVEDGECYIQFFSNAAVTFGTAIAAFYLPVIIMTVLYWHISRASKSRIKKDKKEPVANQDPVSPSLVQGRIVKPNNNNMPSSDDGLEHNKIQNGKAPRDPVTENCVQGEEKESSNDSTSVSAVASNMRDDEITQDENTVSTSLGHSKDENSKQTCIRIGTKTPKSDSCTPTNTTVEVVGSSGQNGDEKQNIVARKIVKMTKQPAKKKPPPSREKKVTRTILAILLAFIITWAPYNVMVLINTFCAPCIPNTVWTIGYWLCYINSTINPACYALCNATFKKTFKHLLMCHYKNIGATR
Description: as §1
(§2) For radioligand binding assays, the results are expressed as % inhibition of control-specific binding obtained in the presence of the test compounds. The IC50 values (concentration causing a half-maximal inhibition of control-specific binding) and Hill coefficients (nH) were determined by nonlinear regression analysis of the competition curves generated with mean replicate values using Hill equation curve fitting. The inhibition constants (Ki) were subsequently calculated by applying the Cheng Prusoff equation[38].

[5] = biological target: T4, α1A adrenoceptor (Homo sapiens, UniProt P35348); test: α1A adrenoceptor radioligand binding (CEREP)
T4 construct: purchased CEREP, France (external assay service) 2338
T4 sequence (P35348 1-466): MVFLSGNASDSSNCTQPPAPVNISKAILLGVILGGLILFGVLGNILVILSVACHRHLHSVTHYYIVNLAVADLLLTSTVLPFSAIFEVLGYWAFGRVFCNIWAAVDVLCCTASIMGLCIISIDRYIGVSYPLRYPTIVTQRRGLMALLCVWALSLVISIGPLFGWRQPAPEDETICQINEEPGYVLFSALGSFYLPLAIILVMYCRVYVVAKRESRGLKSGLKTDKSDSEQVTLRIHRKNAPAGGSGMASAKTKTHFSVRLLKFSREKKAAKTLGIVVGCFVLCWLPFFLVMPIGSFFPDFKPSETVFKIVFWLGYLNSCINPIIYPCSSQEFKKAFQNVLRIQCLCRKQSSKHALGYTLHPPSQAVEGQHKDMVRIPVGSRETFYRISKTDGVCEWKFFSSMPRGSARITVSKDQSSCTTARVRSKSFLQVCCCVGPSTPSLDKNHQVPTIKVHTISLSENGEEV
Description: as §1, §2

[6] = Rat blood PK, IV and oral; assay type: in vivo; conditions: Wistar, rat, whole blood, oral, 10 mg/kg, rat; read-out: Rat F (bioavailability)
Description: Blood samples were collected at 0.083, 0.25, 0.5, 1, 2, 4, 8, 23, 32, 48, 55 and 72 hours after an IV dose of 2 mg/kg or an oral dose of 10 mg/kg. Oral administration was done using oral gavage at a maximum dose volume of 10 mL/kg. Solution formulation containing 10% NMP, 20% DMA in dextrose / normal saline was used for IV administration and a suspension in 0.5% w/v HPMC with 0.1% v/v Tween 80 was used for oral administration. 25 µl of blood samples were mixed with 100 µL of Milli-Q water and vortexed for 5 minutes in the plate shaker at a speed of 900 rpm to ensure complete hemolysis. Proteins were precipitated by adding 125 µL of cold acetonotrile containing internal standard. After extraction on a plate shaker for 10 minutes at 900 rpm, the plate was centrifuged at 4000 rpm for 20 minutes. The supernatant (180 µL) was transferred to another plate and 2.5 µL of Zinc sulphate (200 mM) was added to separate the heme fraction. This mixture was centrifuged and 10 µL of the supernatant was analyzed by LC-MS/MS. […]

[7] = system: Pf 7G8; test: microbe, parasite or virus in culture; assay type: cell-based; conditions: Plasmodium falciparum
Text: (§3) tested in duplicate from two independent experiments using a SYBR-Green based assay2.
(§4) (1 picture or pasted object on this page, not shown here)

[8] = system: Pf DD2; test: microbe, parasite or virus in culture; assay type: cell-based; conditions: Plasmodium falciparum
Text: as §3, §4

[9] = system: Pf K1; test: microbe, parasite or virus in culture; assay type: cell-based; conditions: Plasmodium falciparum
Text: as §3, §4

[10] = system: Pf NF54; test: microbe, parasite or virus in culture; assay type: cell-based; conditions: Plasmodium falciparum
Text: as §3, §4

[11] = system: Pf SB1; test: microbe, parasite or virus in culture; assay type: cell-based; conditions: Plasmodium falciparum
Text: as §3, §4

[12] = system: Pf W2; test: microbe, parasite or virus in culture; assay type: cell-based; conditions: Plasmodium falciparum
Text: as §3, §4

[13] = Caco2 permeability; conditions: human, Caco-2

Which IC50 [1] does the source give for `CCc1cc(Nc2ncc(N3CCN[C@H](C)C3)c(Nc3cc(C)n(C)n3)n2)nc(C)c1F.Cl.Cl` [compound 8, (R)-N4-(1,5-dimethyl-1H-pyrazol-3-yl)-N2-(4-ethyl-5-fluoro-6-methylpyridin-2-yl)-5-(3-methylpiperazin-1-yl)pyrimidine-2,4-diamine dihydrochloride] here?
Its IC50 is 25 nM.

What about the IC50 [2] of the same compound?
The IC50 was greater than 30000 nM.

And the IC50 [3]?
The IC50 was 30000 nM.

What about the IC50 [4] of the same compound?
The IC50 was 3100 nM.

What about the IC50 [5] of the same compound?
The IC50 was 1300 nM.

What about the bioavailability [6] of the same compound?
The bioavailability was 31%.

And the IC50 [7]?
Its IC50 is 74.4 ± 17 nM.

And the IC50 [8]?
Its IC50 is 38.3 ± 1.5 nM.

And the IC50 [9]?
The IC50 was 64.7 ± 12 nM.

And the IC50 [10]?
The IC50 was 57.2 ± 20 nM.

And the IC50 [11]?
The IC50 was 34.7 ± 3 nM.

What about the IC50 [12] of the same compound?
Its IC50 is 78.8 ± 7 nM.

And the Papp A→B [13]?
The Papp A→B was 4 ×10⁻⁶ cm/s.

Source: PMC4389225, “Triaminopyrimidine is a fast-killing and long-acting antimalarial clinical candidate” (Nature Communications, 2015)
